Measurements published in patent US9181263B2, “Inhibitors of bruton's tyrosine kinase” (PHARMACYCLICS, INC., priority 2007, dated 2015).

What was measured:
[1] = Glutathione binding assay; format: physicochemical; conditions: 5 mM glutathione, 10 μM inhibitor, potassium phosphate buffer, room temperature, HPLC
Procedure: A calculated value (e.g (1/Btk IC50)/Glutathione conjugation rate) as shown in the Table 2) is used to compare compounds for their ratio between potency at inhibiting their target and their non-specific binding to other SH groups, such as those in glutathione. […] Calculated ratios such as these are used to quantitatively compare different compounds and select compounds for further study.
For the glutathione binding assays, 5 mM glutathione, 10 μM Btk inhibitor in DMSO (10 μL) and 6 equivalents of N′N′ Diisopropyl ethyl amine were combined in 1 mL potassium phosphate buffer. The mixture was incubated for 0, 15, 60 minutes at room temperature and the reaction was stopped with 10 equivalents of formic acid. 50 μL of each reaction mixture was injected on HPLC (Mobil Phase A: 0.2% formic acid in water, Mobile Phase B: 0.2% formic acid in acetonitrile, HPLC Column: Metasil Basic 3μ, 150×4.6 mm, 10% B, Gradient: 10% to 90% B, Detection: UV/Vis […]). Rate of reaction was reported as nmole GSH conjugate conversion per minute from the normalized ratio for area under the curve from HPLC chromatograms for both GSH conjugate and the parent.

lymphoma cell line DOHH2 = test: DOHH2 cell proliferation assay (Alamar Blue); format: cell-based; conditions: Homo sapiens, DOHH-2, 72 hours
Procedure: After 72 hours, cell number was measured using Alamar Blue using manufacturer's protocol. A dilution series of untreated cells was run in parallel to verify that the Alamar Blue assay reliably reflected cell number and that growth conditions were not limiting. […] GI50 values were confirmed in two or more separate experiments for each cell line.
Analogs are generated that are Btk inhibitors and that are cytotoxic to the lymphoma cell line DOHH2. For the DOHH2 cell proliferation assay, cells were seeded in 96-well plates in standard growth media (RPMI+10% fetal calf serum) and compounds were added in a 9-point dilution series ranging from 10 uM to 0.04 uM with DMSO at 0.1% final concentration in all wells. After 72 hours, cell number was measured using Alamar Blue using manufacturer's protocol. A dilution series of untreated cells was run in parallel to verify that the Alamar Blue assay reliably reflected cell number and that growth conditions were not limiting.

Glutathione Conj Rate [1]: 0.004525 nmol/min
GI50 (lymphoma cell line DOHH2): > 10 µM
SMILES: CN(C)C/C=C/C(=O)N1CCC[C@@H]1Cn1nc(-c2ccc(Oc3ccccc3)cc2)c2c(N)ncnc21 [Compound 11, (E)-1-((R)-2-((4-amino-3-(4-phenoxyphenyl)-1H-pyrazolo[3,4-d]pyrimidin-1-yl)methyl)pyrolidin-1-yl)-4-(dimethylamino)but-2-en-1-one]
